From patent publication US4423071A, “Polyol derivatives, processes for preparing the same and their uses in therapeutics” (Sanofi, priority 1979, dated 1983)
Entries after “also recorded” stand apart in the source; their conditions may differ. Like-named read-outs stand apart in the source and are kept apart here.

Key:
[1] = in vivo; cited from earlier work
[2] = parameters: species or system rats; conditions: rat, in vivo, po, 600 mg/kg
Procedure: The first series of drawings represent blood-levels in acid of formula I above in relation to time, this acid being either released from a salt thereof or from an ester of the invention.
FIG. 1: represents blood-levels in di-n-propylacetic acid obtained from:
(a) An oral dose to rats of 600 mg/kg of either: glyceryl 1-(di-n-propylacetate) (Curve 1) or glyceryl 1,2-bis-(di-n-propylacetate) (Curve 2) or glyceryl 1,3-bis-(di-n-propylacetate) (Curve 3)
(b) An intravenous dose to rats of 200 mg/kg of sodium di-n-propylacetate (Curve 4) […] FIG. 6: represents blood-levels in di-n-propylacetic acid obtained from: […]
(b) An intravenous dose to rats of 200 mg/kg of sodium di-n-propylacetate (Curve 3) FIG. 7: represents blood-levels in di-n-propylacetic acid obtained from:
1,4-butanediol bis-(di-n-propylacetate) (Curve 1) or 2-buten-1,4-diol bis-(di-n-propylacetate) (cis isomer) (Curve 2) or 2-butyn-1,4-diol bis-(di-n-propylacetate) (Curve 3)

[3] = parameters: species or system humans; conditions: in vivo
Procedure: FIG. 8: represents blood-levels in di-n-propylacetic acid obtained from:
(a) An oral dose of 600 mg of glyceryl 1-(di-n-propylacetate) (Curve 1)
(b) An oral dose of 476 mg of glyceryl 1,2-bis-(-di-n-propylacetate) (Curve 2)
(c) An oral dose of 460 mg of sodium di-n-propylacetate (Curve 3)
FIG. 9: represents the blood-levels in di-n-propylacetic acid obtained from the oral administration of 1000 mg of glyceryl 1,2-bis-(di-n-propylacetate) every 24 hours for 4 days.
FIG. 10: represents the blood-levels in di-n-propylacetic acid obtained from:
(a) An oral dose of 1000 mg of mixtures of glyceryl 1,2-bis-(di-n-propylacetate)/glyceryl 1,3-bis-(di-n-propylacetate)
("Mixtures A and B" referred to above) (Curves 1 to 5)
(b) An oral dose of 1000 mg of sodium di-n-propylacetate (Curve 6)
FIG. 11: represents the blood-levels in di-n-propylacetic acid obtained from an oral dose of 1000 mg of 1,2-propanediol bis-(di-n-propylacetate).

[4] = Pharmacokinetic trials with animals (species not specified), release of parent acid; assay type: in vivo, animal
rats = experiment: Acute toxicity tests in rats; conditions: rat, in vivo
Description: (§1) The results of acute toxicity tests obtained with compounds of the invention are given below:

[5] = Acute toxicity tests in mice; conditions: mouse, in vivo, oral route
[6] = tested on: Pentylenetetrazol-induced seizure; experiment: Pentylenetetrazol-induced seizure (anticonvulsant action); assay type: in vivo; conditions: rats, oral, ester 600 mg/kg, acid 100 mg/kg, pentylenetetrazol 125 mg/kg i.p.
Procedure: The results of trials performed with such di-n-propylacetyl derivatives in order to determine the anticonvulsant action are set out below.
The anticonvulsant action was determined using pentylenetetrazol as convulsant agent.
Batches of 10 rats were treated by oral route with a dose of 600 mg/kg of glyceryl 1-(di-n-propylacetate).
At various times after administration, the animals received an intraperitoneal dose of 125 mg/kg of pentylenetetrazol.
The percentage of protection against the convulsive seizure was then determined at each of the times in question.
A similar trial was carried out with 100 mg/kg of di-n-propylacetic acid.
This dose represents the amount of di-n-propylacetic acid required to provide a di-n-propylacetic acid blood-level equivalent to the maximum level obtained with 600 mg/kg of glyceryl 1-(di-n-propylacetate). The results obtained are given in the following Table in which are shown the percentage of protection achieved at the various times indicated: […]

[7] = Acute toxicity tests in rats; conditions: rat, in vivo; rats, oral route
Description: as §1

[8] = tested on: Chronic cobalt-induced epilepsy; experiment: Chronic cobalt-induced epilepsy; assay type: in vivo, rats; conditions: 14 days i.p., sodium salt 2 x 200 mg/kg daily, Mixture A 400 mg/kg daily
Procedure: This trial was performed in comparison with sodium di-n-propylacetate. Batches of rats were given for 14 days either two daily intraperitoneal doses of 200 mg/kg (morning and evening) of sodium di-n-propylacetate or a daily intraperitoneal dose of 400 mg/kg (evening) of a mixture of glyceryl 1,2- and 1,3-bis-(di-n-propylacetates) ("Mixture A").

| Structure (SMILES) | release of di-n-propylacetic acid in the animal organism [4] | slow-release of di-n-propylacetic acid in the human body ([3]; po) | LD50 [5] [mg/kg] | percentage of protection against the convulsive seizure ([6]; 0.5 h) [%] | percentage of protection against the convulsive seizure ([6]; 1 h) [%] | percentage of protection against the convulsive seizure ([6]; 2 h) [%] | percentage of protection against the convulsive seizure ([6]; 4 h) [%] | percentage of protection against the convulsive seizure ([6]; 8 h) [%] | percentage of protection against the convulsive seizure ([6]; 16 h) [%] | LD50 [7] [mg/kg] | further results |
| --- | --- | --- | --- | --- | --- | --- | --- | --- | --- | --- | --- |
| CCCC(CCC)C(=O)OCC(COC(=O)C(CCC)CCC)OC(=O)C(CCC)CCC [glyceryl tri-(di-n-propylacetate)] |  |  |  |  |  |  |  |  |  |  | slow-release properties as reported in the literature [1]: a remarkably useful substance which has all the properties expected of a slow-release preparation; also recorded: can act as a slow-release form of di-n-propylacetic acid; bioavailability [2]: poor bioavailability; maximum blood-levels in di-n-propylacetic acid [2]: ≤ 10 µg/mL; time until di-n-propylacetic acid appeared in the blood [2]: ≥ 150 min; value as a slow-release form of di-n-propylacetic acid [2]: of no value as a slow-release form of di-n-propylacetic acid; bioavailability ([3]; po): poor bioavailability |
| CCCC(CCC)C(=O)OCC(CO)OC(=O)C(CCC)CCC (stereo not shown) [glyceryl 1,2-bis-(di-n-propylacetate), Glyceryl 1,2-bis-(di-n-propylacetate)] | possess the requisite qualities to enable di-n-propylacetic acid to be released in the animal organism at a decreasing rate | can provide the slow-release of di-n-propylacetic acid in the human body to a degree which enables therapeutic blood-levels in this acid to be attained |  |  |  |  |  |  |  |  | LD0 (rats; ip): > 2000 mg/kg; LD0 (rats; po): > 5000 mg/kg |
| CCCC(CCC)C(=O)OCC(O)CO (stereo not shown) [glyceryl 1-(di-n-propylacetate), Glyceryl 1-(di-n-propylacetate)] | possess the requisite qualities to enable di-n-propylacetic acid to be released in the animal organism at a decreasing rate | quite unable to induce a slow-release in di-n-propylacetic acid in the blood | 3360 | 29 | 56 | 41 | 43 | 35 | 22 | 2360 | blood-levels in di-n-propylacetic acid (FIG. 1) [2]: resists the rapid elimination of this acid and maintains a high blood-level in this acid; metabolism to glycerol and di-n-propylacetic acid [3]: too rapid |
| CCCC(CCC)C(=O)OCC(O)COC(=O)C(CCC)CCC [glyceryl 1,3-bis-(di-n-propylacetate), Glyceryl 1,3-bis-(di-n-propylacetate)] | possess the requisite qualities to enable di-n-propylacetic acid to be released in the animal organism at a decreasing rate | can provide the slow-release of di-n-propylacetic acid in the human body to a degree which enables therapeutic blood-levels in this acid to be attained |  |  |  |  |  |  |  |  | bioavailability compared with the 1,2-diester [3]: better bioavailability than that of the corresponding 1,2-diester; blood-levels in di-n-propylacetic acid compared with the 1,2-diester [3]: Very similar results |
| CCCC(CCC)C(=O)O [di-n-propylacetic acid, reference compound] |  |  |  | 23 | 0 | 0 | 0 | 0 | 0 |  |  |
| CCCC(CCC)C(=O)[O-].[Na+] [sodium di-n-propylacetate, reference compound] |  |  | 1700 |  |  |  |  |  |  | 1530 | Number of seizures between the 7th and 14th day ([8]; controls 3.57): 1.25; Number of rats presenting at least one seizure ([8]; controls 7/7): 3/4; apparent half-life of di-n-propylacetic acid ([3]; human, po): 11 h 35 min h min |
